What is called ED50 is the midpoint of the dose-response relation. The IC50 is the concentration that inhibits the measured activity by half.

Here are results for 27 molecules from ChEMBL document CHEMBL4715740, “Synthesis, anti-inflammatory, analgesic, COX-1/2 inhibitory activities and molecular docking studies of substituted 2-mercapto-4(3H)-quinazolinones” (Eur J Med Chem, 2016).

One assay deals with Mus musculus. The assay can be described thus: Analgesic activity in Swiss albino mouse administered ip and measured after 60 mins by hot plate method. The assay is classed as functional. The conditions noted are these: 1 h.
For the next assay, the system named is Rattus norvegicus. The assay can be described thus: Antiinflammatory activity against Sprague-Dawley rat assessed as reduction in carragenan-induced paw edema administered ip and measured after 2 hrs by plethysmometry. The assay is classed as functional.
The target in assay [1] is T1, Prostaglandin G/H synthase 1 (Ovis aries, UniProt P05979).
T1 sequence (P05979 whole entry): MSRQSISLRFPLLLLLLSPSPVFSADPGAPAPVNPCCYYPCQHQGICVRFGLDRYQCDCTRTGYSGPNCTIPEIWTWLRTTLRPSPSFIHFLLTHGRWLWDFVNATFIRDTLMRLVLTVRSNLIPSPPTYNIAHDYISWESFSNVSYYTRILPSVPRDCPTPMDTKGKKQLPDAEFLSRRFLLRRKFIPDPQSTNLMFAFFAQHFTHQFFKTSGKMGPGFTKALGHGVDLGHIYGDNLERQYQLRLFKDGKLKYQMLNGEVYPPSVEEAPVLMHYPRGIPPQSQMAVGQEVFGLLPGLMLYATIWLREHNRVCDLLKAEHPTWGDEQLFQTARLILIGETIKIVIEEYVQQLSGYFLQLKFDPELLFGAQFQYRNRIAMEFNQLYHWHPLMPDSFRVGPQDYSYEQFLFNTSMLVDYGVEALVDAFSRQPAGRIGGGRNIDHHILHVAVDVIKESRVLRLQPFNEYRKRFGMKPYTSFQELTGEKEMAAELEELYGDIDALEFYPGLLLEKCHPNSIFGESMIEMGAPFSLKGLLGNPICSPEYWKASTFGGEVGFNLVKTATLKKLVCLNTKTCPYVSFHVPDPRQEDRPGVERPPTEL
The experiment in a line: Inhibition of ovine COX1 assessed as reduction in PGF2alpha production using arachidonic acid as substrate preincubated with enzyme for 5 mins followed by substrate addition and measured after 2 mins by colorimetric analysis.

On to `N#CCSc1nc2ccccc2c(=O)n1CCc1ccccn1`, for which the ED50 in the assay on Mus musculus and in the assay on Rattus norvegicus was over 200 mg/kg each time.

On to `CC(C)c1ccc(CSc2nc3ccccc3c(=O)n2CCc2ccccn2)cc1`, for which the ED50 with Mus musculus and in the assay with Rattus norvegicus was over 200 mg/kg each time.

Turning to `NNC(=O)CSc1nc2ccccc2c(=O)n1CCc1ccccn1`, the half-inhibitory concentration (IC50) in assay [1] was over 100 µM.

With `CCC(=O)NNC(=O)CSc1nc2ccccc2c(=O)n1CCc1ccccn1`, in assay [1], the IC50 was over 100 µM. In addition, the values for the ED50 in the assay on Mus musculus and in the assay with Rattus norvegicus were 95.5 mg/kg and 83.3 mg/kg, respectively.

For `O=C1c2ccccc2C(=O)N1CCCSc1nc2ccccc2c(=O)n1CCc1ccccn1`, the 50% effective dose (ED50) in the assay on Mus musculus and with Rattus norvegicus was over 200 mg/kg throughout.

Regarding `O=c1c2ccccc2nc(SCc2nnc(S)n2-c2ccccc2)n1CCc1ccccn1`, the ED50 in the assay with Mus musculus and with Rattus norvegicus was over 200 mg/kg throughout.

As to `O=C(CSc1nc2ccccc2c(=O)n1CCc1ccccn1)NNC(=S)Nc1ccccc1`, the ED50 in the assay on Mus musculus and with Rattus norvegicus was over 200 mg/kg in each case.

In the case of `CCSc1nc2ccccc2c(=O)n1CCc1ccccn1`, in assay [1], the half-inhibitory concentration (IC50) is over 100 µM. In addition, the median effective dose (ED50) in the assay on Mus musculus is 105 mg/kg; in the assay with Rattus norvegicus, 74.5 mg/kg.

With `O=c1c2ccccc2nc(SCc2nnc(Nc3ccccc3)s2)n1CCc1ccccn1`, the ED50 in the assay with Mus musculus and in the assay on Rattus norvegicus was over 200 mg/kg in each case.

For the molecule `O=C(CSc1nc2ccccc2c(=O)n1CCc1ccccn1)NNC(=O)c1ccc(Cl)cc1`, the ED50 in the assay with Mus musculus and in the assay on Rattus norvegicus was over 200 mg/kg throughout.

For the molecule `CCNC(=S)NNC(=O)CSc1nc2ccccc2c(=O)n1CCc1ccccn1`, in assay [1], the half-inhibitory concentration (IC50) was over 100 µM. Besides, the median effective dose (ED50) in the assay on Mus musculus came out at 33.3 mg/kg; in the assay on Rattus norvegicus, 70.5 mg/kg.

Take `CSc1nc2ccccc2c(=O)n1CCc1ccccn1`: the 50% effective dose (ED50) with Mus musculus and in the assay on Rattus norvegicus was over 200 mg/kg throughout.

With `O=c1c2ccccc2nc(SCc2ccccc2)n1CCc1ccccn1`, the median effective dose (ED50) with Mus musculus and in the assay on Rattus norvegicus was over 200 mg/kg each time.

For `Cc1ccc(-c2cc(C(F)(F)F)nn2-c2ccc(S(N)(=O)=O)cc2)cc1` [CELECOXIB], the results for the ED50 in the assay on Mus musculus and in the assay with Rattus norvegicus were 71.6 mg/kg and 84.3 mg/kg, respectively.

On to `O=c1c2ccccc2nc(S)n1CCc1ccccn1`, for which the 50% inhibitory concentration (IC50) in assay [1] was over 100 µM.

As to `O=c1c2ccccc2nc(SCc2ccc(Cl)cc2)n1CCc1ccccn1`, the IC50 in assay [1] is over 100 µM. Also, the ED50 in the assay with Mus musculus amounted to 99.2 mg/kg; with Rattus norvegicus, 65.7 mg/kg.

As for `O=C(CSc1nc2ccccc2c(=O)n1CCc1ccccn1)NNC(=O)c1ccccc1`, the half-maximal inhibitory concentration (IC50) in assay [1] is over 100 µM. The results for the ED50 in the assay with Mus musculus and in the assay with Rattus norvegicus were 86.1 mg/kg and 90.1 mg/kg, respectively.

For the molecule `O=c1c2ccccc2nc(SCc2nnc(NCc3ccccc3)s2)n1CCc1ccccn1`, the median effective dose (ED50) in the assay with Mus musculus and in the assay on Rattus norvegicus was over 200 mg/kg each time.

With `O=C(CSc1nc2ccccc2c(=O)n1CCc1ccccn1)NNC(=S)NCc1ccccc1`, the ED50 in the assay on Mus musculus is 47.4 mg/kg; in the assay with Rattus norvegicus, over 200 mg/kg.

With `O=c1c2ccccc2nc(SCCN2CCOCC2)n1CCc1ccccn1`, the median effective dose (ED50) in the assay on Mus musculus and with Rattus norvegicus was over 200 mg/kg in each case.

Regarding `COc1ccc(C(=O)NNC(=O)CSc2nc3ccccc3c(=O)n2CCc2ccccn2)cc1`, the half-inhibitory concentration (IC50) in assay [1] is over 100 µM. The ED50 in the assay on Mus musculus and with Rattus norvegicus was 101 mg/kg throughout.

Take `COc1ccc(NC(=S)NNC(=O)CSc2nc3ccccc3c(=O)n2CCc2ccccn2)cc1`: the 50% effective dose (ED50) in the assay on Mus musculus and with Rattus norvegicus was over 200 mg/kg in each case.

For the molecule `CCNc1nnc(CSc2nc3ccccc3c(=O)n2CCc2ccccn2)s1`, the ED50 in the assay on Mus musculus and in the assay with Rattus norvegicus was over 200 mg/kg throughout.

Turning to `COc1ccc(Nc2nnc(CSc3nc4ccccc4c(=O)n3CCc3ccccn3)s2)cc1`, the ED50 with Mus musculus and with Rattus norvegicus was over 200 mg/kg each time.

Consider `CCOC(=O)CSc1nc2ccccc2c(=O)n1CCc1ccccn1`, for which the ED50 in the assay on Mus musculus and with Rattus norvegicus was over 200 mg/kg throughout.

As for `CCn1c(S)nnc1CSc1nc2ccccc2c(=O)n1CCc1ccccn1`, the IC50 in assay [1] is over 100 µM. Moreover, the 50% effective dose (ED50) stood at 71.4 mg/kg in the assay with Mus musculus and 91.9 mg/kg in the assay with Rattus norvegicus.

On to `O=c1c2ccccc2nc(SCc2nnc(S)n2Cc2ccccc2)n1CCc1ccccn1`, for which the ED50 in the assay on Mus musculus and with Rattus norvegicus was over 200 mg/kg throughout.
